# Results: US11746116B2, “Antibiotic resistance breakers” (KING'S COLLEGE LONDON, priority 2017, dated 2023)
# Legend:
# EMRSA16 = assay: MIC, microdilution broth method; assay type: cell-based, Staphylococcus aureus; conditions: for MIC, EMRSA16: in µg/mL
# MSSA9144 = assay: MIC, microdilution broth method; assay type: cell-based, Staphylococcus aureus
# VSE775 = assay: MIC, microdilution broth method; assay type: cell-based, Enterococcus faecalis; set-up: MIC, VSE775: unit not given beside the values
# [1] = test system: multidrug resistant strains; assay: Reserpine growth assay in several multidrug resistant strains (FIG. 27); assay type: cell-based; conditions: compared to ML-83-009 or levofloxacin
# Experimental: Reserpine was added at a final concentration of 10 μg/mL (made up at 40 μg/mL in TSB, 50 μL per well). The bacteria were added at an OD of 0.01 in TSB (100 μL/well). The plate was a normal clear plate as used for MICs. OD was read every 30 minutes for 9 hours (the literature states 7 hours, but this is strain-dependent).
# VRE12201 = assay: MIC, microdilution broth method; assay type: cell-based, Enterococcus faecalis
# [2] = ESKAPE panel, Gram-positive, in µg/mL
compound,measurement,setting,value
"Cc1cc(C)nc(N[C@@H]2CCN(c3c(F)cc4c(=O)c(C(=O)O)cn5c4c3OC[C@@H]5C)C2)n1 [KSN-BL7, (S)-10-((R)-3-((4,6-dimethylpyrimidin-2-yl)amino)pyrrolidin-1-yl)-9-fluoro-3-methyl-7-oxo-2,3-dihydro-7H-[1,4]oxazino[2,3,4-ij]quinoline-6-carboxylic acid]","MIC, EMRSA16","EMRSA16; EMRSA16 (Table 16, role of the terminal pyrimidine ring)",0.25-0.5
same,"MIC, EMRSA16","EMRSA16; ESKAPE panel, Gram-positive",0.25
same,MIC,EMRSA16; Staphylococcus aureus,0.25 µg/mL
same,"MIC, MSSA9144",MSSA9144; [2],≤0.0039
same,MIC,MSSA9144; Staphylococcus aureus,≤ 0.0039 µg/mL
same,"MIC, VSE775","VSE775; ESKAPE panel, Gram-positive",0.0625
same,MIC,VSE775; Enterococcus faecalis,0.06 µg/mL
same,efflux from the bacteria (reserpine growth assay),[1],reduced efflux
same,"MIC, VRE12201",VRE12201; [2],0.0313
same,MIC,VRE12201; Enterococcus faecalis,0.03 µg/mL
